{"source": "patent US8247211B2", "about": "“Glycopeptide antibiotics” (American Cyanamid Company, priority 2001, dated 2012)", "key": {"Escherichia coli": {"system": "Escherichia coli", "experiment": "In vitro antibacterial evaluation: minimum inhibitory concentration (MIC), broth dilution method", "type": "cell-based", "conditions": "5×10^5 CFU/mL, 18 hours at 35° C.", "outline": "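Values are minimum inhibitory concentrations, meaning the smallest antibiotic concentration that stops growth of the organism. They come from broth dilution in Muller-Hinton II […] per NCCLS guidance (M7-A2), using 5×10^5 CFU/mL and concentrations from 64 to 0.06 μg/mL.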"}, "Streptococcus sp.": {"system": "Streptococcus sp.", "experiment": "In vitro antibacterial evaluation: minimum inhibitory concentration (MIC), broth dilution method", "type": "cell-based", "conditions": "broth dilution, 5×10^5 CFU/mL, 18 hours at 35° C.", "outline": "(§1)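 Using Muller-Hinton II […] and an inoculum of 5×10^5 CFU/mL, antibiotic dilutions from 64 down to 0.06 μg/mL were tested following NCCLS M7-A2. The MIC is the lowest concentration inhibiting growth, including in methicillin-, penicillin- or vancomycin-resistant clinical isolates.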"}, "Staphylococcus sp.": {"system": "Staphylococcus sp.", "experiment": "In vitro antibacterial evaluation: minimum inhibitory concentration (MIC), broth dilution method", "type": "cell-based", "conditions": "for MIC Staphylococcus aureus-SMITH (GC 4543): strain GC 4543; for MIC Staphylococcus haemolyticus (GC 4546): strain GC 4546; for MIC Coagulase Negative Staphylococcus (GC 4547): strain GC 4547; for MIC Coagulase Negative Staphylococcus (GC 4548): strain GC 4548; for MIC Coagulase Negative Staphylococcus (GC 4549): strain GC 4549; for MIC Coagulase Negative Staphylococcus (GC 4551): strain GC 4551; for MIC Coagulase Negative Staphylococcus (GC 6257): strain GC 6257", "outline": "as §1"}, "Enterococcus sp.": {"system": "Enterococcus sp.", "experiment": "In vitro antibacterial evaluation: minimum inhibitory concentration (MIC), broth dilution method", "type": "cell-based", "conditions": "broth dilution, 5×10^5 CFU/mL, 18 hours at 35° C.", "outline": "as §1"}, "[1]": {"experiment": "Anatomic pathology (heart and kidney histopathology) in mice", "type": "in vivo, CD-1 mice", "conditions": "20 mg/kg intravenously daily for 9 days, microscopic histopathology on day 10", "outline": "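Histopathology on H&E-stained, paraffin-embedded sections, subjectively scored (slight, mild, moderate, marked, severe) relative to untreated controls. Dosing: glycopeptide antibiotics 20 mg/kg intravenously once daily ×9 days in 20-day-old CD-1 mice, n=5 per group including vehicle.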"}, "[2]": {"type": "in vivo", "conditions": "mice, 20 mg/kg intravenously daily for 9 days, serum on day 10", "method": "20-day-old CD-1 mice were divided into a vehicle control group (5 mice) and a treatment group (5 mice). Samples of glycopeptide antibiotics were administered at 20 mg/kg intravenously daily for 9 days. Animals were necropsied on day 10 Sera were analyzed for BUN (blood urea nitrogen), creatinine, AST (aspartic aminotransferase), and ALT (alanine aminotransferase) by routine, standard, automated methods using an Hitachi 747 chemistry analyzer."}, "[3]": {"system": "Streptococcus pneumoniae (GC 1894), penicillin resistant strain", "experiment": "Acute lethal infection in mice (ED50)", "type": "in vivo", "conditions": "female CD-1 mice, intraperitoneal challenge, intravenous dose 30 min. after infection, 7 day survival ratios", "outline": "(§2)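 IP bacterial challenge, female CD-1 mice; inoculum lethal to untreated controls in 24-48 hr. IV dosing in saline or 5% dextrose 30 min post-infection, 5 mice/dose. ED50 from 7-day survival, 3 tests pooled.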"}, "[4]": {"system": "Staphylococcus aureus-SMITH (GC 4543)", "experiment": "Acute lethal infection in mice (ED50)", "type": "in vivo", "conditions": "female CD-1 mice, intraperitoneal challenge, intravenous dose 30 min. after infection, 7 day survival ratios", "outline": "as §2"}, "[5]": {"system": "Enterococcus faecalis (GC 6189), vancomycin resistant strain", "experiment": "Acute lethal infection in mice (ED50)", "type": "in vivo", "conditions": "female CD-1 mice, intraperitoneal challenge, intravenous dose 30 min. after infection, 7 day survival ratios", "outline": "as §2"}, "[6]": {"conditions": "broth dilution, 18 hours at 35° C."}}}
{"smiles": "CC(c1ccccc1)C1NC(=O)CNC(=O)C(CO)NC(=O)C(C(O)C2CNC(=N)N2C2OC(CO)C(O)C(O)C2O)NC(=O)C(C(O)C2CNC(=N)N2)NC(=O)C(Cc2ccc(OC3OC(CO)C(OC4OC5COC(c6ccccc6)OC5C(O)C4O)C(O)C3O)cc2)NC1=O", "note": "(stereo not drawn) [Example 104, Cyclo[glycyl-β-methylphenylalanyl-O-[4-O-(4,6-O-benzylidenehexopyranosyl)hexopyranosyl]-tyrosyl-3-(2-iminoimidazolidin-4-yl)seryl-3-(3-hexopyranosyl-2-iminoimidazolidin-4-yl)-serylseryl]]", "values": [{"measurement": "MIC Escherichia coli (GC 4560)", "setting": "Escherichia coli", "result": "0.5 to 1", "unit": "µg/mL"}, {"measurement": "MIC Streptococcus pneumoniae (GC 1894)", "setting": "Streptococcus sp.", "result": "<0.12", "unit": "µg/mL"}, {"measurement": "MIC Streptococcus pneumoniae (GC 4565)", "setting": "Streptococcus sp.", "result": "<0.12", "unit": "µg/mL"}, {"measurement": "MIC Streptococcus pneumonine (ATCC 6301)", "setting": "Streptococcus sp.", "result": "<0.12", "unit": "µg/mL"}, {"measurement": "MIC Streptococcus pyogenes (GC 4563)", "setting": "Streptococcus sp.", "result": "<0.12", "unit": "µg/mL"}, {"measurement": "MIC Staphylococcus aureus (ATCC 29213)", "setting": "Staphylococcus sp.; strain ATCC 29213", "result": 1, "unit": "µg/mL"}, {"measurement": "MIC Staphylococcus aureus (GC 1131)", "setting": "Staphylococcus sp.; strain GC 1131", "result": 2, "unit": "µg/mL"}, {"measurement": "MIC Staphylococcus aureus (GC 3051)", "setting": "Staphylococcus sp.; strain GC 3051", "result": 1, "unit": "µg/mL"}, {"measurement": "MIC Staphylococcus aureus (GC 3053)", "setting": "Staphylococcus sp.; strain GC 3053", "result": 1, "unit": "µg/mL"}, {"measurement": "MIC Staphylococcus aureus (GC 4541)", "setting": "Staphylococcus sp.; strain GC 4541", "result": 1, "unit": "µg/mL"}, {"measurement": "MIC Staphylococcus aureus (GC 4542)", "setting": "Staphylococcus sp.; strain GC 4542", "result": 0.5, "unit": "µg/mL"}, {"measurement": "MIC Staphylococcus aureus-SMITH (GC 4543)", "setting": "Staphylococcus sp.; 18 hours at 35° C.", "result": "0.5 to 1", "unit": "µg/mL"}, {"measurement": "MIC Staphylococcus aureus-SMITH (GC 4543)", "setting": "Staphylococcus sp.; [6]", "result": "0.5 to 1", "unit": "µg/mL"}, {"measurement": "MIC Staphylococcus aureus (GC 4544)", "setting": "Staphylococcus sp.; strain GC 4544", "result": 1, "unit": "µg/mL"}, {"measurement": "MIC Staphylococcus aureus (GC 4545)", "setting": "Staphylococcus sp.; strain GC 4545", "result": "0.5 to 1", "unit": "µg/mL"}, {"measurement": "MIC Staphylococcus haemolyticus (GC 4546)", "setting": "Staphylococcus sp.", "result": 0.5, "unit": "µg/mL"}, {"measurement": "MIC Staphylococcus haemolyticus (GC 4546)", "setting": "Staphylococcus sp.; [6]", "result": 0.5, "unit": "µg/mL"}, {"measurement": "MIC Coagulase Negative Staphylococcus (GC 4547)", "setting": "Staphylococcus sp.", "result": 1, "unit": "µg/mL"}, {"measurement": "MIC Coagulase Negative Staphylococcus (GC 4547)", "setting": "Staphylococcus sp.; [6]", "result": 1, "unit": "µg/mL"}, {"measurement": "MIC Coagulase Negative Staphylococcus (GC 4548)", "setting": "Staphylococcus sp.", "result": "0.5 to 1", "unit": "µg/mL"}, {"measurement": "MIC Coagulase Negative Staphylococcus (GC 4548)", "setting": "Staphylococcus sp.; [6]", "result": "0.5 to 1", "unit": "µg/mL"}, {"measurement": "MIC Coagulase Negative Staphylococcus (GC 4549)", "setting": "Staphylococcus sp.", "result": 0.5, "unit": "µg/mL"}, {"measurement": "MIC Coagulase Negative Staphylococcus (GC 4549)", "setting": "Staphylococcus sp.; [6]", "result": 0.5, "unit": "µg/mL"}, {"measurement": "MIC Coagulase Negative Staphylococcus (GC 4551)", "setting": "Staphylococcus sp.", "result": 1, "unit": "µg/mL"}, {"measurement": "MIC Coagulase Negative Staphylococcus (GC 4551)", "setting": "Staphylococcus sp.; [6]", "result": 1, "unit": "µg/mL"}, {"measurement": "MIC Coagulase Negative Staphylococcus (GC 6257)", "setting": "Staphylococcus sp.", "result": 0.5, "unit": "µg/mL"}, {"measurement": "MIC Coagulase Negative Staphylococcus (GC 6257)", "setting": "Staphylococcus sp.; [6]", "result": 0.5, "unit": "µg/mL"}, {"measurement": "MIC Enterococccus avium (GC 4558)", "setting": "Enterococcus sp.", "result": "2 to 4", "unit": "µg/mL"}, {"measurement": "MIC Enterococccus faecalis (ATCC 29212)", "setting": "Enterococcus sp.", "result": "2 to 4", "unit": "µg/mL"}, {"measurement": "MIC Enterococccus faecalis (GC 2691)", "setting": "Enterococcus sp.", "result": 4, "unit": "µg/mL"}, {"measurement": "MIC Enterococccus faecalis (GC 3059)", "setting": "Enterococcus sp.", "result": 4, "unit": "µg/mL"}, {"measurement": "MIC Enterococccus faecalis (GC 4552)", "setting": "Enterococcus sp.", "result": 4, "unit": "µg/mL"}, {"measurement": "MIC Enterococccus faecalis (GC 4553)", "setting": "Enterococcus sp.", "result": 4, "unit": "µg/mL"}, {"measurement": "MIC Enterococccus faecalis (GC 4554)", "setting": "Enterococcus sp.", "result": 4, "unit": "µg/mL"}, {"measurement": "MIC Enterococccus faecalis (GC 6189)", "setting": "Enterococcus sp.", "result": 2, "unit": "µg/mL"}, {"measurement": "MIC Enterococccus faecium (GC 2243)", "setting": "Enterococcus sp.", "result": 2, "unit": "µg/mL"}, {"measurement": "MIC Enterococccus faecium (GC 4556)", "setting": "Enterococcus sp.", "result": "2 to 4", "unit": "µg/mL"}, {"measurement": "MIC Enterococccus faecium (GC 4557)", "setting": "Enterococcus sp.", "result": 2, "unit": "µg/mL"}, {"measurement": "MIC Enterococcus faecalis (GC 2242)", "setting": "Enterococcus sp.", "result": 2, "unit": "µg/mL"}, {"measurement": "Anatomical Pathology (Day 10), Heart", "setting": "[1]", "result": "+++"}, {"measurement": "Anatomical Pathology (Day 10), Kidney", "setting": "[1]", "result": "+++"}, {"measurement": "Clinical Chemistry (Day 10) % of Control, AST", "setting": "[2]", "result": "+87%"}, {"measurement": "Clinical Chemistry (Day 10) % of Control, Creatinine", "setting": "[2]", "result": "+65%"}, {"measurement": "median effective dose (ED50), Streptococcus pneumoniae (GC 1894)", "setting": "[3]", "result": 0.22, "unit": "mg/kg"}, {"measurement": "median effective dose (ED50), Staphylococcus aureus-SMITH (GC 4543)", "setting": "[4]", "result": 0.19, "unit": "mg/kg"}, {"measurement": "median effective dose (ED50), Enterococcus faecalis (GC 6189)", "setting": "[5]", "result": "0.39-0.63"}]}
